One sequence from article PMC9738727, “Purification and Characterization of Novel Anti-MRSA Peptides Produced by Brevibacillus sp. SPR-20” (Molecules, 2022) can be followed below.

Ends that are not written are not given here.

The series concerns human erythrocytes. The series is described as follows: Hemolysis. It counts as cell-based. The following applies: highest concentration with hemolysis below 10% divided by MIC. As to the method: Human blood (5 mL) from a healthy volunteer was collected in an EDTA tube. The erythrocytes were centrifuged at 700× g for 8 min and washed with PBS pH 7.4 three times. The erythrocytes were diluted with PBS pH 7.4 to reach a 0.5% v/v concentration. The suspension of erythrocytes (50 μL) was transferred to each well in a 96-well plate. The anti-MRSA peptide was dissolved and prepared by performing a 2-fold serial dilution with PBS pH 7.4 before the samples (50 μL) were added to the wells to achieve the final concentrations of 0.25–64 μg/mL. The reactions were incubated at 37 °C for 1 h, and the supernatant was collected by centrifugation at 1000× g for 10 min. The release of hemoglobin was monitored by measuring the absorbance at 540 nm. PBS pH 7.4 and 1% Triton X-100 were used as the negative and positive controls, respectively. The relative hemolysis was determined by normalizing the absorbance of the sample by that of the positive control. Each experiment was performed in three replications.

With VVVNVLVKVLPPPVV [Peptide P1], the “therapeutic index of hemolysis (TIhemolysis)” value was found to be 16.
